Source: US10597388B2, “Pyridazinone herbicides” (FMC CORPORATION, priority 2014, dated 2020)

Assays:
Assay in all cases: Test D controlled growth environment herbicide test, pre- and postemergence
Assay type in all cases: in vivo
[1] = system: Russian thistle (Salsola kali)
Summary of the method: (§1)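 Rating is visual, 0–100 scale (100 = complete control), made against untreated plants 14–21 d after treatment in controlled growth conditions. Postemergence sprays went onto 1- to 4-leaf plants in peat medium; preemergence sprays onto silt loam after sowing; formulation included a surfactant.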

[2] = system: barley, spring (spring barley, Hordeum vulgare)
Summary of the method: as §1

[3] = system: buckwheat, wild (wild buckwheat, Polygonum convolvulus)
Summary of the method: as §1

[4] = system: canarygrass (Phalaris minor)
Summary of the method: as §1

[5] = system: chickweed (common chickweed, Stellaria media)
Summary of the method: as §1

[6] = system: field violet (Viola arvensis)
Summary of the method: as §1

[7] = system: galium (catchweed bedstraw, Galium aparine)
Summary of the method: as §1

[8] = system: kochia (Kochia scoparia)
Summary of the method: as §1

[9] = system: oat, wild (wild oat, Avena fatua)
Summary of the method: as §1

[10] = system: oilseed rape (Brassica napus)
Summary of the method: as §1

[11] = system: pigweed (Amaranthus retroflexus)
Summary of the method: as §1

[12] = system: wheat, spring (spring wheat, Triticum aestivum)
Summary of the method: as §1

[13] = system: wheat, winter (winter wheat, Triticum aestivum)
Summary of the method: as §1

[14] = Postemergence, 31 g ai/ha, scale 0 to 100 (0 no effect, 100 complete control)
[15] = Postemergence, 125 g ai/ha, visual rating on scale 0 (no effect) to 100 (complete control), 14 to 21 d
[16] = Postemergence, 250 g ai/ha, scale 0 to 100 (0 no effect, 100 complete control)
[17] = Preemergence, 62 g ai/ha, scale 0 to 100 (0 no effect, 100 complete control)
[18] = Preemergence, 125 g ai/ha, scale 0 to 100 (0 no effect, 100 complete control)
[19] = Preemergence, 250 g ai/ha, scale 0 to 100, 0 no effect, 100 complete control
[20] = postemergence, 62 g ai/ha, scale 0 to 100, 0 no effect, 100 complete control

Question: For COC(=O)Oc1c(C)nn(C)c(=O)c1-c1c(C)sc2ccc(C)cc12 [Compound 80], which “Russian Thistle plant response rating” value [1, 14] is on record?
Answer: 70

Question: And the “Plant response rating, Russian Thistle” value [1, 15]?
Answer: 80

Question: And the “Plant response rating, Russian Thistle” value [1, 16]?
Answer: 80

Question: And the “Plant response rating (scale of 0 to 100), Russian Thistle” value ([1]; Preemergence, 31 g ai/ha)?
Answer: 10

Question: What about the “Plant response rating, Russian Thistle” value [1, 17] of the same molecule?
Answer: 95

Question: What about the “Plant response rating, Russian Thistle” value [1, 18] of the same molecule?
Answer: 95

Question: And the “Plant response rating, Russian Thistle” value [1, 19]?
Answer: 100

Question: What about the “Plant response rating, Russian Thistle” value [1, 20] of the same molecule?
Answer: 70

Question: What about the “Barley, Spring plant response rating” value [2, 14] of the same molecule?
Answer: 0

Question: What about the “Plant response rating, Barley, Spring” value [2, 15] of the same molecule?
Answer: 15

Question: And the “Plant response rating, Barley, Spring” value [2, 16]?
Answer: 25

Question: What about the “Plant response rating (scale of 0 to 100), Barley, Spring” value ([2]; Preemergence, 31 g ai/ha) of the same molecule?
Answer: 0

Question: And the “Plant response rating, Barley, Spring” value [2, 17]?
Answer: 0

Question: And the “Plant response rating, Barley, Spring” value [2, 18]?
Answer: 5

Question: What about the “Plant response rating, Barley, Spring” value [2, 19] of the same molecule?
Answer: 0

Question: And the “Plant response rating, Barley, Spring” value [2, 20]?
Answer: 10

Question: And the “Buckwheat, Wild plant response rating” value [3, 14]?
Answer: 100

Question: And the “Plant response rating, Buckwheat, Wild” value [3, 15]?
Answer: 100

Question: And the “Plant response rating, Buckwheat, Wild” value [3, 16]?
Answer: 100

Question: What about the “Plant response rating (scale of 0 to 100), Buckwheat, Wild” value ([3]; Preemergence, 31 g ai/ha) of the same molecule?
Answer: 0

Question: What about the “Plant response rating, Buckwheat, Wild” value [3, 17] of the same molecule?
Answer: 25

Question: What about the “Plant response rating, Buckwheat, Wild” value [3, 18] of the same molecule?
Answer: 20

Question: What about the “Plant response rating, Buckwheat, Wild” value [3, 19] of the same molecule?
Answer: 20

Question: And the “Plant response rating, Buckwheat, Wild” value [3, 20]?
Answer: 100

Question: And the “Canarygrass plant response rating” value [4, 14]?
Answer: 55

Question: And the “Plant response rating, Canarygrass” value [4, 15]?
Answer: 85

Question: What about the “Plant response rating, Canarygrass” value [4, 16] of the same molecule?
Answer: 90

Question: What about the “Plant response rating (scale of 0 to 100), Canarygrass” value ([4]; Preemergence, 31 g ai/ha) of the same molecule?
Answer: 85

Question: What about the “Plant response rating, Canarygrass” value [4, 17] of the same molecule?
Answer: 90

Question: What about the “Plant response rating, Canarygrass” value [4, 18] of the same molecule?
Answer: 90

Question: What about the “Plant response rating, Canarygrass” value [4, 19] of the same molecule?
Answer: 100

Question: And the “Plant response rating, Canarygrass” value [4, 20]?
Answer: 80

Question: What about the “Chickweed plant response rating” value [5, 14] of the same molecule?
Answer: 90

Question: And the “Plant response rating, Chickweed” value [5, 15]?
Answer: 100

Question: What about the “Plant response rating, Chickweed” value [5, 16] of the same molecule?
Answer: 100

Question: And the “Plant response rating (scale of 0 to 100), Chickweed” value ([5]; Preemergence, 31 g ai/ha)?
Answer: 100

Question: And the “Plant response rating, Chickweed” value [5, 17]?
Answer: 100

Question: And the “Plant response rating, Chickweed” value [5, 18]?
Answer: 100

Question: And the “Plant response rating, Chickweed” value [5, 19]?
Answer: 100

Question: What about the “Plant response rating, Chickweed” value [5, 20] of the same molecule?
Answer: 100

Question: What about the “Field Violet plant response rating” value [6, 14] of the same molecule?
Answer: 90

Question: What about the “Plant response rating, Field Violet” value [6, 15] of the same molecule?
Answer: 95

Question: What about the “Plant response rating, Field Violet” value [6, 16] of the same molecule?
Answer: 100

Question: What about the “Plant response rating (scale of 0 to 100), Field Violet” value ([6]; Preemergence, 31 g ai/ha) of the same molecule?
Answer: 55

Question: And the “Plant response rating, Field Violet” value [6, 17]?
Answer: 95

Question: What about the “Plant response rating, Field Violet” value [6, 18] of the same molecule?
Answer: 100

Question: And the “Plant response rating, Field Violet” value [6, 19]?
Answer: 95

Question: What about the “Plant response rating, Field Violet” value [6, 20] of the same molecule?
Answer: 85

Question: What about the “Galium plant response rating” value [7, 14] of the same molecule?
Answer: 90

Question: And the “Plant response rating, Galium” value [7, 15]?
Answer: 95

Question: And the “Plant response rating, Galium” value [7, 16]?
Answer: 100

Question: And the “Plant response rating (scale of 0 to 100), Galium” value ([7]; Preemergence, 31 g ai/ha)?
Answer: 25

Question: And the “Plant response rating, Galium” value [7, 17]?
Answer: 40

Question: And the “Plant response rating, Galium” value [7, 18]?
Answer: 80

Question: And the “Plant response rating, Galium” value [7, 19]?
Answer: 90

Question: What about the “Plant response rating, Galium” value [7, 20] of the same molecule?
Answer: 95

Question: What about the “Kochia plant response rating” value [8, 14] of the same molecule?
Answer: 100

Question: What about the “Plant response rating, Kochia” value [8, 15] of the same molecule?
Answer: 100

Question: And the “Plant response rating, Kochia” value [8, 16]?
Answer: 100

Question: And the “Plant response rating (scale of 0 to 100), Kochia” value ([8]; Preemergence, 31 g ai/ha)?
Answer: 35

Question: What about the “Plant response rating, Kochia” value [8, 17] of the same molecule?
Answer: 75

Question: And the “Plant response rating, Kochia” value [8, 18]?
Answer: 100

Question: What about the “Plant response rating, Kochia” value [8, 19] of the same molecule?
Answer: 100

Question: What about the “Plant response rating, Kochia” value [8, 20] of the same molecule?
Answer: 100

Question: What about the “Oat, Wild plant response rating” value [9, 14] of the same molecule?
Answer: 95

Question: What about the “Plant response rating, Oat, Wild” value [9, 15] of the same molecule?
Answer: 100

Question: And the “Plant response rating, Oat, Wild” value [9, 16]?
Answer: 100

Question: What about the “Plant response rating (scale of 0 to 100), Oat, Wild” value ([9]; Preemergence, 31 g ai/ha) of the same molecule?
Answer: 85

Question: And the “Plant response rating, Oat, Wild” value [9, 17]?
Answer: 90

Question: What about the “Plant response rating, Oat, Wild” value [9, 18] of the same molecule?
Answer: 90

Question: And the “Plant response rating, Oat, Wild” value [9, 19]?
Answer: 95

Question: And the “Plant response rating, Oat, Wild” value [9, 20]?
Answer: 98

Question: And the “Oilseed Rape plant response rating” value [10, 14]?
Answer: 15

Question: And the “Plant response rating, Oilseed Rape” value [10, 15]?
Answer: 65

Question: And the “Plant response rating, Oilseed Rape” value [10, 16]?
Answer: 75

Question: What about the “Plant response rating (scale of 0 to 100), Oilseed Rape” value ([10]; Preemergence, 31 g ai/ha) of the same molecule?
Answer: 35

Question: And the “Plant response rating, Oilseed Rape” value [10, 17]?
Answer: 35

Question: What about the “Plant response rating, Oilseed Rape” value [10, 18] of the same molecule?
Answer: 35

Question: What about the “Plant response rating, Oilseed Rape” value [10, 19] of the same molecule?
Answer: 40

Question: And the “Plant response rating, Oilseed Rape” value [10, 20]?
Answer: 55

Question: What about the “Pigweed plant response rating” value [11, 14] of the same molecule?
Answer: 100

Question: What about the “Plant response rating, Pigweed” value [11, 15] of the same molecule?
Answer: 100

Question: What about the “Plant response rating, Pigweed” value [11, 16] of the same molecule?
Answer: 100

Question: What about the “Plant response rating (scale of 0 to 100), Pigweed” value ([11]; Preemergence, 31 g ai/ha) of the same molecule?
Answer: 100

Question: And the “Plant response rating, Pigweed” value [11, 17]?
Answer: 100

Question: What about the “Plant response rating, Pigweed” value [11, 18] of the same molecule?
Answer: 100

Question: What about the “Plant response rating, Pigweed” value [11, 19] of the same molecule?
Answer: 100

Question: What about the “Plant response rating, Pigweed” value [11, 20] of the same molecule?
Answer: 100

Question: And the “Wheat, Spring plant response rating” value [12, 14]?
Answer: 0

Question: What about the “Plant response rating, Wheat, Spring” value [12, 15] of the same molecule?
Answer: 15

Question: What about the “Plant response rating, Wheat, Spring” value [12, 16] of the same molecule?
Answer: 30

Question: And the “Plant response rating (scale of 0 to 100), Wheat, Spring” value ([12]; Preemergence, 31 g ai/ha)?
Answer: 0

Question: And the “Plant response rating, Wheat, Spring” value [12, 17]?
Answer: 0

Question: What about the “Plant response rating, Wheat, Spring” value [12, 18] of the same molecule?
Answer: 25

Question: What about the “Plant response rating, Wheat, Spring” value [12, 19] of the same molecule?
Answer: 35

Question: And the “Plant response rating, Wheat, Spring” value [12, 20]?
Answer: 10

Question: What about the “Wheat, Winter plant response rating” value [13, 14] of the same molecule?
Answer: 0

Question: And the “Plant response rating, Wheat, Winter” value [13, 15]?
Answer: 5

Question: And the “Plant response rating, Wheat, Winter” value [13, 16]?
Answer: 15

Question: What about the “Plant response rating (scale of 0 to 100), Wheat, Winter” value ([13]; Preemergence, 31 g ai/ha) of the same molecule?
Answer: 0

Question: And the “Plant response rating, Wheat, Winter” value [13, 17]?
Answer: 0

Question: What about the “Plant response rating, Wheat, Winter” value [13, 18] of the same molecule?
Answer: 0

Question: And the “Plant response rating, Wheat, Winter” value [13, 19]?
Answer: 20

Question: And the “Plant response rating, Wheat, Winter” value [13, 20]?
Answer: 0
